Assays:
[1] = molecular target: 5-hydroxytryptamine receptor 1B (Rattus norvegicus, UniProt P28564)
[2] = molecular target: T1, 5-hydroxytryptamine receptor 2C (Sus scrofa, UniProt G7ZKZ7)
T1 sequence (G7ZKZ7 whole entry): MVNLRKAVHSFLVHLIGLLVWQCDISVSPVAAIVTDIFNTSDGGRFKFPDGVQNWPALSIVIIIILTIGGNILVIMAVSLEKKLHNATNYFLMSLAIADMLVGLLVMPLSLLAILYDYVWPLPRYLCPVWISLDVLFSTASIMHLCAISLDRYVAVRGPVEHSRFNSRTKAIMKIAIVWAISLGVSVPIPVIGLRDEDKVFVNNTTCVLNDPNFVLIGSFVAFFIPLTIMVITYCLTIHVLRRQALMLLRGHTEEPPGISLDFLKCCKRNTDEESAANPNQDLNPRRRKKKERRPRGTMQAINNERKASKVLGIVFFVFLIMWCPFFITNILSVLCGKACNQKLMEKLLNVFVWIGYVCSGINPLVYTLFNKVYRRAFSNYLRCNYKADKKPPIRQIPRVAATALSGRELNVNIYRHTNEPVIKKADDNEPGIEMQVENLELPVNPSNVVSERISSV

[3] = molecular target: T2, 5-hydroxytryptamine receptor 1A (Rattus norvegicus, UniProt P19327)
T2 sequence (P19327 whole entry): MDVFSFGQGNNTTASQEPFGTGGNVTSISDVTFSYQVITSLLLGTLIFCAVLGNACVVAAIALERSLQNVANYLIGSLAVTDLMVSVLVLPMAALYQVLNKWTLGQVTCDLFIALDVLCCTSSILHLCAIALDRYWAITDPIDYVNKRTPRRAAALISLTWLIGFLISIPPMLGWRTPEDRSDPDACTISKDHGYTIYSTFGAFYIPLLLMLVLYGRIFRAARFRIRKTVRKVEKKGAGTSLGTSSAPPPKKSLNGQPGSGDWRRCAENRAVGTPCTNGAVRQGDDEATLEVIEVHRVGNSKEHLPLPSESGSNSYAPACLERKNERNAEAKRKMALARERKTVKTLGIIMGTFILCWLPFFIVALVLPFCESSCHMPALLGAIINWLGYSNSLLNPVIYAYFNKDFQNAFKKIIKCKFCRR

[4] = molecular target: 5-hydroxytryptamine receptor 2A (Rattus norvegicus, UniProt P14842)
[5] = molecular target: T3, 5-hydroxytryptamine receptor 3A (Rattus norvegicus, UniProt P35563)
T3 sequence (P35563 whole entry): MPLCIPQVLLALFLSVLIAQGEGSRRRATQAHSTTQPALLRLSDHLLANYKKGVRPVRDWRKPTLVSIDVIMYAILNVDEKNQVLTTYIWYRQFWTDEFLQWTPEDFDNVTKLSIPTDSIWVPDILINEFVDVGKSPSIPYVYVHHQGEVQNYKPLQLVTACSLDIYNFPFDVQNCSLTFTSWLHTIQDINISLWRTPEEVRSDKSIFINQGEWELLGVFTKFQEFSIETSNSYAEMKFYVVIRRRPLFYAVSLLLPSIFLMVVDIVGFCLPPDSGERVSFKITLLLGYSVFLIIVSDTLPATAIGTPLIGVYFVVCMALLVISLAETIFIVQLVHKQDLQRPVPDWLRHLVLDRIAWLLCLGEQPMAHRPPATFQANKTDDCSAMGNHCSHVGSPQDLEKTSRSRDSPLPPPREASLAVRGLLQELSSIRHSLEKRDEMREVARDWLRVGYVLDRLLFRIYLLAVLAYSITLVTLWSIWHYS

5-hydroxytryptamine receptor 1B, sequence (P28564 whole entry): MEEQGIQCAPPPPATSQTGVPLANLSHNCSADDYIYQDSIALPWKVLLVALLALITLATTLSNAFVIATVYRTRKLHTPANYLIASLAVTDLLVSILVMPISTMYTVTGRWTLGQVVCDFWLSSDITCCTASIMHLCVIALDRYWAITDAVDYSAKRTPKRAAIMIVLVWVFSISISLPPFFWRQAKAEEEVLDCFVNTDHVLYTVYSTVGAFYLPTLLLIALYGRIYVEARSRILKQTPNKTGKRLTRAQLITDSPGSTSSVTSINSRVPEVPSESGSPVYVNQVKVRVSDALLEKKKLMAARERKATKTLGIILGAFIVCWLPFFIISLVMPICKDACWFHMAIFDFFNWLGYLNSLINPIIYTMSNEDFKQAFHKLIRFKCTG
5-hydroxytryptamine receptor 2A, sequence (P14842 whole entry): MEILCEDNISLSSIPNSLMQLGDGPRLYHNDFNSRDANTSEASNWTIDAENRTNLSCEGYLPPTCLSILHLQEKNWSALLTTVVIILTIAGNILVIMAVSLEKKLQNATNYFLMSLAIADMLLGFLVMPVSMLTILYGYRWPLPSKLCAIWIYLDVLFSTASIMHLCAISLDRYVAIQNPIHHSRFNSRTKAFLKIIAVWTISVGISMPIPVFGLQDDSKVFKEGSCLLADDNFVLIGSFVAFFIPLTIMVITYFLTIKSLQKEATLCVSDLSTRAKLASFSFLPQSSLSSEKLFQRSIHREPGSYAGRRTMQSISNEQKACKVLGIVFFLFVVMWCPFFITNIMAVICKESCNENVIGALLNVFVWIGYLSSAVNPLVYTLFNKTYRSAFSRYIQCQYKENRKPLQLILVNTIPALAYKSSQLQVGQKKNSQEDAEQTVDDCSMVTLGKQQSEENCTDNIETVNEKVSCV

Row | SMILES | Ki [1] [nM] | Ki [2] [nM] | Ki [3] [nM] | Ki [4] [nM] | Ki [5] [nM]
1 | O=C(CCCN1CCC2(CC1)C(=O)NCN2c1ccccc1)c1ccc(F)cc1 [8-[4-(4-fluorophenyl)-4-oxidanylidene-butyl]-1-phenyl-1,3,8-triazaspiro[4.5]decan-4-one] | > 10000 | 977 | 115 |  | 
2 | C=CCc1ccccc1OC[C@@H](O)CNC(C)C [ALPRENOLOL,(-)] | 100 | 4470 |  | 5010 | 
3 | c1ccc2c(c1)CCC2CCN1CCN(c2cccc3c2OCCO3)CC1 (configuration not stated) [CAS_182596] | 417 | 115 | 1.51 | 191 | 53.7
4 | c1ccc2c(c1)CC2CCN1CCN(c2cccc3c2OCCO3)CC1 (configuration not stated) [NSC_182595] | 603 | 151 | 0.61 | 141 | 372
5 | c1ccc2c(c1)CC(N1CCN(c3cccc4c3OCCO4)CC1)C2 [NSC_132787] | 1740 | 537 |  | 214 | 1000
6 | COc1ccccc1N1CCN(CCCCN2C(=O)c3ccccc3C2=O)CC1 [2-{4-[4-(2-Methoxy-phenyl)-piperazin-1-yl]-butyl}-isoindole-1,3-dione] | 1070 | 776 |  | 646 | 
7 | COC(=O)c1cc2c(N3CCN(CCCCN4C(=O)c5ccccc5S4(=O)=O)CC3)cccc2[nH]1 [CAS_141533-35-9] |  |  | 1.58 |  | 
8 | COc1ccccc1N1CCN(CCN2C(=O)CC3(CCCC3)CC2=O)CC1 | > 10000 | 234 |  | 1740 | 1000
9 | CC(C)(C)NCC(O)COc1cccc2c1SCCC2 (single isomer, unassigned; (-)) [TERTATOLOL(-)] | 182 | 363 | 8.31 | 1450 | 1000
10 | COc1ccccc1N1CCN(C[C@@H](C(=O)NC(C)(C)C)c2ccccc2)CC1 [WAY 100135] | > 10000 | 3470 | 32.4 | 3470 | 1000
11 | c1cc2c(c(N3CCNCC3)c1)OCCO2 [1-(2,3-Dihydro-benzo[1,4]dioxin-5-yl)-piperazine] | 53.7 | 170 | 9.33 | 1380 | 1000
12 | O=C1CC2(CCCC2)CC(=O)N1CCNCC1COc2ccccc2O1 (configuration not stated) [CAS_124756-23-6] | 4570 | 427 | 1.25 | 1620 | 

Source: BindingDB's records for PubMed 8301575 (Institut De Recherches Servier, 1994)
